pEC50, pIC50: −log10 of the molar value.
Target: T1, TRPC6 channels (Homo sapiens, UniProt Q9Y210)
T1 construct: expressed in transfected cells; host or cells: HEK293
T1 sequence (Q9Y210 1-931): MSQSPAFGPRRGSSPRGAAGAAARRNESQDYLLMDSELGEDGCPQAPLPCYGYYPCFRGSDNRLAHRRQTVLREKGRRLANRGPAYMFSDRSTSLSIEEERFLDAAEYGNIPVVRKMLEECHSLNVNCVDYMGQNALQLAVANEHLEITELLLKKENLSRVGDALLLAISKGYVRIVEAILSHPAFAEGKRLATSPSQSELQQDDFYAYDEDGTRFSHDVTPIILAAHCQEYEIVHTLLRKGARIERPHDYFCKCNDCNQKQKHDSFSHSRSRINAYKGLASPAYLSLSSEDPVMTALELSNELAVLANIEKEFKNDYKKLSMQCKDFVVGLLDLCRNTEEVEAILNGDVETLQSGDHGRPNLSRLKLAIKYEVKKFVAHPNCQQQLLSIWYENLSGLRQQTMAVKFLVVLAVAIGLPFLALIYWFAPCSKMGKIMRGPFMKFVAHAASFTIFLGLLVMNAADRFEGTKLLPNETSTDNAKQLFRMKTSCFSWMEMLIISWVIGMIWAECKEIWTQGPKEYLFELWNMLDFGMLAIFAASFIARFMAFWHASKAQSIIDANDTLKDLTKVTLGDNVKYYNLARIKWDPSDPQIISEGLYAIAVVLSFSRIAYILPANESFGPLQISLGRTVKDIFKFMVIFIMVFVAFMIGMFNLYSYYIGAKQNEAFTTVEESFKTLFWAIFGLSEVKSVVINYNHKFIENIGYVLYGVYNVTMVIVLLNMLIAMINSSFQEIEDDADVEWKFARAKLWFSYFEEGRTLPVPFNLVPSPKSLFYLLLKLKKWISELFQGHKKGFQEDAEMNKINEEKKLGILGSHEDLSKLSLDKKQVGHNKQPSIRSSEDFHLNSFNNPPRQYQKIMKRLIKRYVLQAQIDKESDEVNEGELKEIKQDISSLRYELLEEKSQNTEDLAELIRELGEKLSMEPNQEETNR
Assay: TRP Family FLIPR Assay, TRPC6
Assay type: cell-based
Conditions: HEK293 cells
Experimental: The compound of Example 5 was tested for selectivity against a panel of Human TRP family ion channels in a TRP Family FLIPR Assay as described below. • 1. TRPC3 channels (human TRPC3 variant 1 gene, expressed in HEK293 cells). • 2. TRPC4 channels (human TRPC4 gene, expressed in HEK293 cells). • 3. TRPC5 channels (human TRPC5 gene, expressed in HEK293 cells). • 4. TRPC6 channels (human TRPC6 gene, expressed in HEK293 cells). • 5. TRPM2 channels (human TRPM2 gene, transiently expressed in HEK293 cells). • 6. TRPM3 channels (human TRPM3 gene, transiently expressed in HEK293 cells). • 7. TRPM4 channels (human TRPM4 gene, expressed in CHO cells). • 8. […]
Data acquisition was performed via the FLIPR Control software supplied with the FLIPR System (MDS-AT) and data was analyzed using Microsoft Excel (Microsoft Corp., Redmond, WA) or GraphPad Prism. […]
[formula] where Base is the response at low concentrations of test article, Max is the maximum response at high concentrations, xhalf the EC50, or IC50, the concentration of test article producing either half-maximal activation or inhibition, and rate is the Hill coefficient. […] No assumptions about the fit parameters was made; the fit parameters were determined by the algorithm.
The effect of each test article was evaluated at eight (8) concentrations: 0.003, 0.01, 0.03, 0.1, 0.3, 1, 3 and 10 μM, n≤4 wells/concentration). […]

CC(C)(O)c1cnc(N2C[C@@]3(CC[C@@H](F)[C@](C)(Cn4cnc5ccc(C#N)cc54)C3)OC2=O)cn1 (single isomer, unassigned) [Example 5]
pEC50 (agonist mode, vs EMAX of Na-ATP 100 μM, read-out: EC50 hTRPC6): < 5.00 | pIC50 (antagonist mode, activated with 10 μM Na-ATP, 0.003-10 μM, read-out: IC50 hTRPC6): < 5.00

Reference: patent US12391683B2, “Therapeutic compounds and methods” (Actio Biosciences, Inc., priority 2022, dated 2025)
